From ChEMBL document CHEMBL6114972, “Proteolysis targeting chimera of BI-2536 induces potent dual degradation of PLK1 and BET proteins” (Bioorg Med Chem, 2025)
Active and inactive are the calls of the source. The rule behind the calls is not given here.

Key:
[1] = target: T1, Protein cereblon/Bromodomain-containing protein 4 (Homo sapiens, UniProt O60885+Q96SW2); assay: Protac activity at CRBN/BRD4 in human K562 cells assessed as BRD4 degradation at 10 nM measured after 36 hrs by Western blot analysis; assay type: cell-based
[2] = tested on: CWR22R; assay: Down regulation of PRDM1 mRNA expression in human 22Rv1 cells at 20 to 100 nM measured after 36 hrs by RT-qPCR analysis; assay type: functional, cell-based; conditions: dose 20-100 nM
[3] = target: T1, Protein cereblon/Bromodomain-containing protein 4; assay: Protac activity at CRBN/BRD4 in human HeLa cells assessed as BRD4 degradation measured after 36 hrs by Western blot analysis relative to control; assay type: cell-based
[4] = target: T1, Protein cereblon/Bromodomain-containing protein 4; assay: Protac activity at CRBN/BRD4 in human 22Rv1 cells assessed as BRD4 degradation at 50 nM measured after 2 hrs by Western blot analysis; assay type: cell-based
[5] = target: T1, Protein cereblon/Bromodomain-containing protein 4; assay: Protac activity at CRBN/BRD4 in human HeLa cells assessed as BRD4 degradation measured after 36 hrs by Western blot analysis; assay type: cell-based
[6] = target: T2, Protein cereblon/Bromodomain-containing protein 3 (Homo sapiens, UniProt Q15059+Q96SW2); assay: Protac activity at CRBN/BRD3 in human 22Rv1 cells assessed as BRD3 degradation measured after 36 hrs by Western blot analysis relative to control; assay type: cell-based
Target sequence in this assay (Q15059 2-726 limits assumed): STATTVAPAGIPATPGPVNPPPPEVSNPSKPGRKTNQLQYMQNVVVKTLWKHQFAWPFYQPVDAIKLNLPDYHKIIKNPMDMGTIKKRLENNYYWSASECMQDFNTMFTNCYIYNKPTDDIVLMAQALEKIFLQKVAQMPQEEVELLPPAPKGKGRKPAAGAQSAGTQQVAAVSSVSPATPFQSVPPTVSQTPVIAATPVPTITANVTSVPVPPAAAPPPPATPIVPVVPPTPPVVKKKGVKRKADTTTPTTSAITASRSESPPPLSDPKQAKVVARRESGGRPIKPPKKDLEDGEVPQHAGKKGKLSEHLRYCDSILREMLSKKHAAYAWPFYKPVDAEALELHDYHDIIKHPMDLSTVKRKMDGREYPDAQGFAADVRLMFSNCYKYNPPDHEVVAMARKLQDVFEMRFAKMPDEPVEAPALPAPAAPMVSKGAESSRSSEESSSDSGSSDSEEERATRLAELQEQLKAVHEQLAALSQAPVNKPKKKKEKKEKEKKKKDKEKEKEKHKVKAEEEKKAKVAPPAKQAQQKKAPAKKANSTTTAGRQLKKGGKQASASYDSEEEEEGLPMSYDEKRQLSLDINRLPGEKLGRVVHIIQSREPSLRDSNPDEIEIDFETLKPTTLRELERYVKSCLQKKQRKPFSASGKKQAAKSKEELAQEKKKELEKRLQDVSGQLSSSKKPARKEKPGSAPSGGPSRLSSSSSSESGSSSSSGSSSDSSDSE
Target sequence in this assay (Q96SW2 whole entry partner): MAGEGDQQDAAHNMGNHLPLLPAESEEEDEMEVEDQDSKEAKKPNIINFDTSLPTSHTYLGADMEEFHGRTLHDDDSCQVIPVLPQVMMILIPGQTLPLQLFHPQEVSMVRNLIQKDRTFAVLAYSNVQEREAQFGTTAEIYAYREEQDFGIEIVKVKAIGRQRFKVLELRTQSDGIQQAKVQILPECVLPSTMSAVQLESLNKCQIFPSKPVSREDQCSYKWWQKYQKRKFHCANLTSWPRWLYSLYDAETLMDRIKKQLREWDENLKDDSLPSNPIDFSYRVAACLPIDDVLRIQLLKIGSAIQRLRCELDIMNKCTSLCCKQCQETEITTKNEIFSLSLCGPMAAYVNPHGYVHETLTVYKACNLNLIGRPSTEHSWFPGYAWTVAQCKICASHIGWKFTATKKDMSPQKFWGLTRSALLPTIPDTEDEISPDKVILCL

[7] = tested on: CWR22R; assay: Cytotoxicity against human 22Rv1 cells assessed as reduction in cell viability measured after 3 days by CCK-8 assay; assay type: functional, cell-based; conditions: 22Rv1, 72 h
[8] = target: T3, Protein cereblon/Serine/threonine-protein kinase PLK1 (Homo sapiens, UniProt P53350+Q96SW2); assay: Protac activity at CRBN/PLK1 in human HeLa cells assessed as PLK1 degradation measured after 36 hrs by Western blot analysis relative to control; assay type: cell-based
Target sequence in this assay (P53350 2-603 limits assumed): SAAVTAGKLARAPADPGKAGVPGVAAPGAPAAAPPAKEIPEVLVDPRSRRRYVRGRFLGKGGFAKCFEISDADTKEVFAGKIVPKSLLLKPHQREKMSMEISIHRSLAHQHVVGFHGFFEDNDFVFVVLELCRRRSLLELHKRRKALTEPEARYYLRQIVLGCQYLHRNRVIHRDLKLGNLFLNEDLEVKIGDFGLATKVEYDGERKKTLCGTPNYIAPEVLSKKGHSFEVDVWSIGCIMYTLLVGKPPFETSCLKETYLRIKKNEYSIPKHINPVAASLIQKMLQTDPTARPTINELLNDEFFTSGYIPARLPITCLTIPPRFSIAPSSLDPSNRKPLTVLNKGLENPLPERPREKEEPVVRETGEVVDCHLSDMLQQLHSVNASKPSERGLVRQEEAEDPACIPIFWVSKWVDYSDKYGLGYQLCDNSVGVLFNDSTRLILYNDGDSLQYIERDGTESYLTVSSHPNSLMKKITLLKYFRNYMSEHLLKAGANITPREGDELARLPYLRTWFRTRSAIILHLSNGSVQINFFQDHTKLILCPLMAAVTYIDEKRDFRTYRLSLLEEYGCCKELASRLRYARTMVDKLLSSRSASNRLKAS
Target sequence in this assay (Q96SW2 whole entry partner): as the sequence (Q96SW2 whole entry partner) above

[9] = target: T3, Protein cereblon/Serine/threonine-protein kinase PLK1; assay: Protac activity at CRBN/PLK1 in human HeLa cells assessed as PLK1 degradation measured after 36 hrs by Western blot analysis; assay type: cell-based
[10] = target: T1, Protein cereblon/Bromodomain-containing protein 4; assay: Protac activity at CRBN/BRD4 in human 22Rv1 cells assessed as BRD4 degradation measured after 36 hrs by Western blot analysis relative to control; assay type: cell-based
[11] = target: T3, Protein cereblon/Serine/threonine-protein kinase PLK1; assay: Protac activity at CRBN/PLK1 in human 22Rv1 cells assessed as PLK1 degradation at 50 nM measured after 24 hrs by Western blot analysis; assay type: cell-based
Target sequence in this assay (P53350 2-603 limits assumed): as the sequence (P53350 2-603 limits assumed) above
Target sequence in this assay (Q96SW2 whole entry partner): as the sequence (Q96SW2 whole entry partner) above

[12] = target: T3, Protein cereblon/Serine/threonine-protein kinase PLK1; assay: Protac activity at CRBN/PLK1 in human HeLa cells assessed as PLK1 degradation at 10 nM measured after 36 hrs by Western blot analysis; assay type: cell-based
Target sequence in this assay (P53350 2-603 limits assumed): as the sequence (P53350 2-603 limits assumed) above
Target sequence in this assay (Q96SW2 whole entry partner): as the sequence (Q96SW2 whole entry partner) above

[13] = target: T4, Protein cereblon/Bromodomain-containing protein 2 (Homo sapiens, UniProt P25440+Q96SW2); assay: Protac activity at CRBN/BRD2 in human 22Rv1 cells assessed as BRD2 degradation measured after 36 hrs by Western blot analysis; assay type: cell-based
[14] = target: T3, Protein cereblon/Serine/threonine-protein kinase PLK1; assay: Protac activity at CRBN/PLK1 in human 22Rv1 cells assessed as PLK1 degradation at 50 nM measured after 36 hrs by Western blot analysis; assay type: cell-based
Target sequence in this assay (P53350 2-603 limits assumed): as the sequence (P53350 2-603 limits assumed) above
Target sequence in this assay (Q96SW2 whole entry partner): as the sequence (Q96SW2 whole entry partner) above

[15] = tested on: CWR22R; assay: Down regulation of Bcl-2 mRNA expression in human 22Rv1 cells at 20 to 100 nM measured after 36 hrs by RT-qPCR analysis; assay type: functional, cell-based; conditions: dose 20-100 nM
[16] = target: T4, Protein cereblon/Bromodomain-containing protein 2; assay: Protac activity at CRBN/BRD2 in human HeLa cells assessed as BRD2 degradation measured after 36 hrs by Western blot analysis; assay type: cell-based
[17] = target: T1, Protein cereblon/Bromodomain-containing protein 4; assay: Protac activity at CRBN/BRD4 in human 22Rv1 cells assessed as BRD4 degradation at 50 nM measured after 4 hrs by Western blot analysis; assay type: cell-based
[18] = target: T4, Protein cereblon/Bromodomain-containing protein 2; assay: Protac activity at CRBN/BRD2 in human 22Rv1 cells assessed as BRD2 degradation measured after 36 hrs by Western blot analysis relative to control; assay type: cell-based
Target sequence in this assay (P25440 whole entry, looked up): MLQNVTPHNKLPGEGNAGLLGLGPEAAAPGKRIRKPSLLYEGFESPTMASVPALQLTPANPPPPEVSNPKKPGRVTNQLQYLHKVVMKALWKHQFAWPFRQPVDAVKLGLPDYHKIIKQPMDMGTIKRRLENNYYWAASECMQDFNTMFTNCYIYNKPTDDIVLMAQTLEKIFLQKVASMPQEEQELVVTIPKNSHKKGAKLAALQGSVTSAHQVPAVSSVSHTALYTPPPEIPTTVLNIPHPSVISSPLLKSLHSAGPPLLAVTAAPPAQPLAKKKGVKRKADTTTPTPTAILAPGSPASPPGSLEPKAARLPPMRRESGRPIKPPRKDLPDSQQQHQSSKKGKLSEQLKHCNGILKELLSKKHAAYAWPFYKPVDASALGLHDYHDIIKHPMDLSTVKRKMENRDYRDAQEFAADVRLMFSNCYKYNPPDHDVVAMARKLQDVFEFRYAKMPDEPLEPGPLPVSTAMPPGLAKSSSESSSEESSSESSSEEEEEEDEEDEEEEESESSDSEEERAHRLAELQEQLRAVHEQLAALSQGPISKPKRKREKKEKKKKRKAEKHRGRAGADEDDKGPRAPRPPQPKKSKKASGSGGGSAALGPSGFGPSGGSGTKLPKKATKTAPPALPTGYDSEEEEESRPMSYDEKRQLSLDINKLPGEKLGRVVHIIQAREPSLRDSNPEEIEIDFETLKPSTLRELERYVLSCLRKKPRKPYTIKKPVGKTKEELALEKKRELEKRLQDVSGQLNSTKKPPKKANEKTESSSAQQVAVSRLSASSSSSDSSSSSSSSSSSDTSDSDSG
Target sequence in this assay (Q96SW2 whole entry, looked up): as the sequence (Q96SW2 whole entry partner) above

[19] = target: T3, Protein cereblon/Serine/threonine-protein kinase PLK1; assay: Protac activity at CRBN/PLK1 in human 22Rv1 cells assessed as PLK1 degradation measured after 36 hrs by Western blot analysis relative to control; assay type: cell-based
Target sequence in this assay (P53350 2-603 limits assumed): as the sequence (P53350 2-603 limits assumed) above
Target sequence in this assay (Q96SW2 whole entry partner): as the sequence (Q96SW2 whole entry partner) above

[20] = target: T2, Protein cereblon/Bromodomain-containing protein 3; assay: Protac activity at CRBN/BRD3 in human 22Rv1 cells assessed as BRD3 degradation measured after 36 hrs by Western blot analysis; assay type: cell-based
[21] = target: T4, Protein cereblon/Bromodomain-containing protein 2; assay: Protac activity at CRBN/BRD2 in human HeLa cells assessed as BRD2 degradation measured after 36 hrs by Western blot analysis relative to control; assay type: cell-based
Target sequence in this assay (P25440 whole entry, looked up): as the sequence (P25440 whole entry, looked up) above
Target sequence in this assay (Q96SW2 whole entry, looked up): as the sequence (Q96SW2 whole entry partner) above

[22] = target: T3, Protein cereblon/Serine/threonine-protein kinase PLK1; assay: Protac activity at CRBN/PLK1 in human MDA-MB-231 cells assessed as PLK1 degradation at 10 nM measured after 36 hrs by Western blot analysis; assay type: cell-based
Target sequence in this assay (P53350 2-603 limits assumed): as the sequence (P53350 2-603 limits assumed) above
Target sequence in this assay (Q96SW2 whole entry partner): as the sequence (Q96SW2 whole entry partner) above

[23] = tested on: MDA-MB-231; assay: Cytotoxicity against human MDA-MB-231 cells assessed as reduction in cell viability measured after 3 days by CCK-8 assay; assay type: functional, cell-based; conditions: MDA-MB-231, 72 h
[24] = target: T3, Protein cereblon/Serine/threonine-protein kinase PLK1; assay: Protac activity at CRBN/PLK1 in human 22Rv1 cells assessed as PLK1 degradation at 10 to 500 nM measured after 36 hrs by Western blot analysis; assay type: cell-based; conditions: dose 10-500 nM
[25] = target: T2, Protein cereblon/Bromodomain-containing protein 3; assay: Protac activity at CRBN/BRD3 in human HeLa cells assessed as BRD3 degradation measured after 36 hrs by Western blot analysis relative to control; assay type: cell-based
Target sequence in this assay (Q15059 2-726 limits assumed): as the sequence (Q15059 2-726 limits assumed) above
Target sequence in this assay (Q96SW2 whole entry partner): as the sequence (Q96SW2 whole entry partner) above

[26] = target: T1, Protein cereblon/Bromodomain-containing protein 4; assay: Protac activity at CRBN/BRD4 in human HeLa cells assessed as BRD4 degradation at 20 nM measured after 24 hrs by Western blot analysis; assay type: cell-based
[27] = target: T3, Protein cereblon/Serine/threonine-protein kinase PLK1; assay: Protac activity at CRBN/PLK1 in human 22Rv1 cells assessed as PLK1 degradation at 2 uM measured after 12 to 24 hrs by Western blot analysis; assay type: cell-based; conditions: time 12-24 hrs
[28] = target: T4, Protein cereblon/Bromodomain-containing protein 2; assay: Protac activity at CRBN/BRD2 in human HeLa cells assessed as BRD2 degradation at 3 nM measured after 36 hrs by Western blot analysis; assay type: cell-based
Target sequence in this assay (P25440 whole entry, looked up): as the sequence (P25440 whole entry, looked up) above
Target sequence in this assay (Q96SW2 whole entry, looked up): as the sequence (Q96SW2 whole entry partner) above

[29] = target: T3, Protein cereblon/Serine/threonine-protein kinase PLK1; assay: Protac activity at CRBN/PLK1 in human HeLa cells assessed as PLK1 degradation at 200 nM measured after 24 hrs by Western blot analysis; assay type: cell-based
[30] = tested on: CWR22R; assay: Down regulation of XIAP mRNA expression in human 22Rv1 cells at 20 to 100 nM measured after 36 hrs by RT-qPCR analysis; assay type: functional, cell-based; conditions: dose 20-100 nM
[31] = target: T1, Protein cereblon/Bromodomain-containing protein 4; assay: Protac activity at CRBN/BRD4 in human 22Rv1 cells assessed as BRD4 degradation measured after 36 hrs by Western blot analysis; assay type: cell-based
[32] = target: T3, Protein cereblon/Serine/threonine-protein kinase PLK1; assay: Protac activity at CRBN/PLK1 in human HeLa cells assessed as PLK1 degradation at 10 to 500 nM measured after 36 hrs by Western blot analysis; assay type: cell-based; conditions: dose 10-500 nM
[33] = target: T2, Protein cereblon/Bromodomain-containing protein 3; assay: Protac activity at CRBN/BRD3 in human HeLa cells assessed as BRD3 degradation at 3 nM measured after 36 hrs by Western blot analysis; assay type: cell-based
Target sequence in this assay (Q15059 2-726 limits assumed): as the sequence (Q15059 2-726 limits assumed) above
Target sequence in this assay (Q96SW2 whole entry partner): as the sequence (Q96SW2 whole entry partner) above

[34] = target: T3, Protein cereblon/Serine/threonine-protein kinase PLK1; assay: Protac activity at CRBN/PLK1 in human K562 cells assessed as PLK1 degradation at 10 nM measured after 36 hrs by Western blot analysis; assay type: cell-based
[35] = tested on: K562; assay: Cytotoxicity against human K562 cells assessed as reduction in cell viability measured after 3 days by CCK-8 assay; assay type: functional, cell-based; conditions: K562, 72 h
[36] = target: T1, Protein cereblon/Bromodomain-containing protein 4; assay: Protac activity at CRBN/BRD4 in human 22Rv1 cells assessed as down regulation of MYC gene expression at 20 to 100 nM measured after 36 hrs by RT-qPCR analysis; assay type: cell-based; conditions: dose 20-100 nM
[37] = target: T2, Protein cereblon/Bromodomain-containing protein 3; assay: Protac activity at CRBN/BRD3 in human HeLa cells assessed as BRD3 degradation measured after 36 hrs by Western blot analysis; assay type: cell-based
[38] = tested on: CWR22R; assay: Effect on P21 mRNA expression in human 22Rv1 cells at 20 to 100 nM measured after 36 hrs by RT-qPCR analysis; assay type: functional, cell-based; conditions: dose 20-100 nM
[39] = target: T1, Protein cereblon/Bromodomain-containing protein 4; assay: Protac activity at CRBN/BRD4 in human HeLa cells assessed as BRD4 degradation at 3 nM measured after 36 hrs by Western blot analysis; assay type: cell-based
[40] = target: T1, Protein cereblon/Bromodomain-containing protein 4; assay: Protac activity at CRBN/BRD4 in human HeLa cells assessed as BRD4 degradation at 10 nM measured after 36 hrs by Western blot analysis; assay type: cell-based
[41] = target: T3, Protein cereblon/Serine/threonine-protein kinase PLK1; assay: Protac activity at CRBN/PLK1 in human 22Rv1 cells assessed as PLK1 degradation measured after 36 hrs by Western blot analysis; assay type: cell-based
[42] = target: T1, Protein cereblon/Bromodomain-containing protein 4; assay: Protac activity at CRBN/BRD4 in human MDA-MB-231 cells assessed as BRD4 degradation at 10 nM measured after 36 hrs by Western blot analysis; assay type: cell-based
[43] = tested on: CWR22R; assay: Antiproliferative activity against human 22Rv1 cells assessed as reduction in cell viability up to 100000 nM incubated for 24 hrs prior to compound washout measured after 1 week by crystal violet staining based assay; assay type: functional
[44] = tested on: HeLa; assay: Cytotoxicity against human HeLa cells assessed as reduction in cell viability measured after 3 days by CCK-8 assay; assay type: functional, cell-based; conditions: 72 h
[45] = target: T3, Protein cereblon/Serine/threonine-protein kinase PLK1; assay: Protac activity at CRBN/PLK1 in human HeLa cells assessed as PLK1 degradation at 500 nM measured after 12 hrs by Western blot analysis; assay type: cell-based
[46] = target: T3, Protein cereblon/Serine/threonine-protein kinase PLK1; assay: Protac activity at CRBN/PLK1 in human HeLa cells assessed as PLK1 degradation at 500 nM measured after 36 hrs by Western blot analysis; assay type: cell-based
[47] = target: T1, Protein cereblon/Bromodomain-containing protein 4; assay: Protac activity at CRBN/BRD4 in human HeLa cells assessed as BRD4 degradation at 500 nM measured after 12 hrs by Western blot analysis; assay type: cell-based

T1 sequence (Q96SW2 whole entry, looked up, other chains not shown): as the sequence (Q96SW2 whole entry partner) above

Activity [1]: Active | Activity [3]: 93.4% | DC50 [5]: 1.03 nM | Activity [6]: 89.9% | Activity [8]: 78.6% | DC50 [9]: 1.64 nM | Activity [10]: 96.5% | Activity [12]: Active | DC50 [13]: 1.63 nM | Activity [14]: Active; Profound Degradation Observed | DC50 [16]: 6.45 nM | Activity [18]: 91.5% | Activity [19]: 78% | DC50 [20]: 9.45 nM | Activity [21]: 82.8% | Activity [22]: Active | Activity [25]: 93.3% | Activity [27]: Active | Activity [28]: Active | Activity [29]: Active; Moderate Effect Observed | DC50 [31]: 1.56 nM | Activity [33]: Active | Activity [34]: Active | DC50 [37]: 1.74 nM | Activity [39]: Active | Activity [40]: Active | DC50 [41]: 4.68 nM | Activity [42]: Active | Activity [45]: 28% | Activity [46]: 92% | Activity [47]: 95%
Compound: CC[C@@H]1C(=O)N(C)c2cnc(Nc3ccc(C(=O)NC4CCN(CCCCCCCC(=O)Nc5cccc6c5C(=O)N(C5CCC(=O)NC5=O)C6=O)CC4)cc3OC)nc2N1C1CCCC1 (some centres not stated)
Activity [2]: Active | Activity [4]: Active; Effectively Reduced The Protein Level | IC50 [7]: 45 nM | Activity [11]: Not active; No Significant Effect Observed | Activity [15]: Active | Activity [17]: Active; Near-Complete Depletion Of Brd4 Observed | IC50 [23]: 274 nM | Activity [24]: Active; Higher Degradation Observed At 36 Hrs | Activity [26]: Active; Demonstrated Most Potent Efficacy | Activity [30]: Active | Activity [32]: Active; Higher Degradation Observed At 36 Hrs | IC50 [35]: 52 nM | Activity [36]: Active; Nearly Complete Down Regulation Observed At 20 Nm | Activity [38]: inactive | Activity [43]: Active; Antiproliferative Effect Was Enhanced Even After 1 Week | IC50 [44]: 44 nM
